Assay: tasting of LC-MS fractions of the product of Example 1
Format: in vivo
Settings: fractions of the Example 1 product, content shown by 1H NMR
Experimental: 30 g of ethyl lactate and 10 g of GMP were thoroughly mixed in 90 g of glycerol to obtain a clear solution. The mixture was heated under stirring at 120° C. for 1 hour. A white precipitate was formed at the end of the heating period. The mixture was cooled to 70° C. and 100 g of isopropyl alcohol was added followed by stirring. Next, the mixture was filtered over a glass filter and the filter residue was washed three times with 300 g isopropyl alcohol. Thus, 12 g of an almost white powder was obtained. The main taste components of the obtained product were identified using LC-MS and tasting different fractions.

Molecule	taste of the fractions containing the substance
CC(O)C(=O)Nc1nc2c(ncn2[C@@H]2O[C@H](COP(=O)(O)O)[C@@H](O)[C@H]2O)c(=O)[nH]1 (some centres unmarked) [N-lactoyl GMP]	“long-lasting” and “kokumi”
O-lactoyl GMP	“long-lasting” and “kokumi”
